According to publication PMC3389279 (Bioorganic & medicinal chemistry letters, 2012):
“Also recorded” adds a separate entry of the source.

Key:
[1] = test system: 68 GPCRs, ion channels and transporters; test: Lead Profiling screen at Ricerca, radioligand binding assays
NKCC1 [2] = molecular target: T1, NKCC1 (Homo sapiens, UniProt P55011); test: 86Rb uptake assay, NKCC1 function; assay type: cell-based; details: concentrations up to 100 µM
T1 sequence (P55011 1-1212): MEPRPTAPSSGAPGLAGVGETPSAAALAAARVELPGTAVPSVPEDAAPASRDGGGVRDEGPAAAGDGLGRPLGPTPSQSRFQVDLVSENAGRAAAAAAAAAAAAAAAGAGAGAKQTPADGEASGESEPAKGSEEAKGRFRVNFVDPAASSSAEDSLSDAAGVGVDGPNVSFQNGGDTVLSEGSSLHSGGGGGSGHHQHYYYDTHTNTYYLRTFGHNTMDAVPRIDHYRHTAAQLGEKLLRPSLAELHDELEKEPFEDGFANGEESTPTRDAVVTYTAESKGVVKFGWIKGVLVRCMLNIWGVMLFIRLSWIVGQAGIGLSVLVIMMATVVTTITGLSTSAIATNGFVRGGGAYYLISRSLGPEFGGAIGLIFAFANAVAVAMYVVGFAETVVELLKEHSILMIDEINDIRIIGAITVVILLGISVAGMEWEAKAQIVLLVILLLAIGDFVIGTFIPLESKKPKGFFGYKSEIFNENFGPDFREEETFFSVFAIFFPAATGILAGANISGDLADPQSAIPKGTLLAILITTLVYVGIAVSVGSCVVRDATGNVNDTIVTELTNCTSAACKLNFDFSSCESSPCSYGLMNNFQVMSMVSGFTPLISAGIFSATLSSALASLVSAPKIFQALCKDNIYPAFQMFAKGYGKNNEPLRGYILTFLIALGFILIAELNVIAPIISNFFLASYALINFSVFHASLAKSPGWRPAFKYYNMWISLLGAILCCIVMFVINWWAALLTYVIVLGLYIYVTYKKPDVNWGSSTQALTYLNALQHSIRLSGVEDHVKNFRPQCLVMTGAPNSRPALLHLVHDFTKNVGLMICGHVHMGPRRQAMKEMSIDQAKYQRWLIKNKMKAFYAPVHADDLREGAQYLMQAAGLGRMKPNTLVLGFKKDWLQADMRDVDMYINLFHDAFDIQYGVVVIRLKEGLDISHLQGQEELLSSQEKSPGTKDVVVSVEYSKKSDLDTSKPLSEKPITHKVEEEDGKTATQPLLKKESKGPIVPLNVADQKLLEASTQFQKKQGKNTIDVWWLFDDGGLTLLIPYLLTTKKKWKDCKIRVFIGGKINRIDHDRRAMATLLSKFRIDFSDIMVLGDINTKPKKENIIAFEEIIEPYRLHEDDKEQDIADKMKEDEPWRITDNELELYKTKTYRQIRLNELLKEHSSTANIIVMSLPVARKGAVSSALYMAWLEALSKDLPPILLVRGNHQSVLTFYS

[3] = Intrinsic clearance in human liver microsomes; assay type: in vitro ADME
NKCC1 [4] = molecular target: T1, NKCC1; details: KCC2 versus NKCC1; cited from earlier work
[5] = Intrinsic clearance in rat liver microsomes; assay type: in vitro ADME
KCC2 [6] = molecular target: T2, KCC2 (Homo sapiens, UniProt Q9H2X9); details: intrathecal injection; cited from earlier work
T2 sequence (Q9H2X9 1-1139): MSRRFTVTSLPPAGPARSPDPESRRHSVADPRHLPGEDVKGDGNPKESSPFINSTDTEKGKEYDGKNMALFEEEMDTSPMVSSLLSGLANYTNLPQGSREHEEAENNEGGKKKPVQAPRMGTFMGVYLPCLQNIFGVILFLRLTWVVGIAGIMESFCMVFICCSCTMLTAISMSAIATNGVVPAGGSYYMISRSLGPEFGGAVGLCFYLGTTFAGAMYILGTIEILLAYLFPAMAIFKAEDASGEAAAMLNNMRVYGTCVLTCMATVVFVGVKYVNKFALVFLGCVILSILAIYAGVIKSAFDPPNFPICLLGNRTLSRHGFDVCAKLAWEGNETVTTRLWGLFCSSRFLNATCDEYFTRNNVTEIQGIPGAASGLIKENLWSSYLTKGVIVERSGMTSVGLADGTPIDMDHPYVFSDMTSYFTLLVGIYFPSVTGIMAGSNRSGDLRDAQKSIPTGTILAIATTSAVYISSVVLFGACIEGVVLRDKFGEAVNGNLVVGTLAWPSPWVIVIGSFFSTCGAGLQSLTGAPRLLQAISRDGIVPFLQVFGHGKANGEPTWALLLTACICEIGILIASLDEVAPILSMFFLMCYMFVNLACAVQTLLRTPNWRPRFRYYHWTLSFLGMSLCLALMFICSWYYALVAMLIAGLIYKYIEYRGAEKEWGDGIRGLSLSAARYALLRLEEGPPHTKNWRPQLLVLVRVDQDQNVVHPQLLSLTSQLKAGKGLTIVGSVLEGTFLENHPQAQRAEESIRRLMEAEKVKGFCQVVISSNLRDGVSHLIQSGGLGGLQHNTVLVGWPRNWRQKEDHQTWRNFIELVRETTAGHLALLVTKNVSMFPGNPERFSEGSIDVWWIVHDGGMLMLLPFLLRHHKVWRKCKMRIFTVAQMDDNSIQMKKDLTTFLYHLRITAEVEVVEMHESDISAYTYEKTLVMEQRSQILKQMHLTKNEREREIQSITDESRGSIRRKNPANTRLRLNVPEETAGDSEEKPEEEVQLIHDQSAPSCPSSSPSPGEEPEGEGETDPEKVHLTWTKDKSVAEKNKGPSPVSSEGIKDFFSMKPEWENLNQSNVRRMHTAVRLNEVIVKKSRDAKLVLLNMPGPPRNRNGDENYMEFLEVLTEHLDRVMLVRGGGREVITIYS

KCC2 [7] = molecular target: T2, KCC2; test: 86Rb uptake assay in KCC2-overexpressing HEK293 cells; assay type: cell-based; details: first generation libraries, 2-pyridyl-based analogs

Row | Compound | inhibition of NKCC1 function (in words) (NKCC1 [2]) | selectivity versus NKCC1 (NKCC1 [4]) | KCC2 antagonist activity (in words) (KCC2 [7]) | further results
1 | Cc1csc(N(C(=O)CSc2ccc(-c3ccccc3)nn2)C2CC2)n1 [11k] | weak, partial inhibition; also recorded: weak partial inhibition | – | – | inhibition in ancillary pharmacology panel ([1]; 10 µM, 68 targets): ≤ 50%; activity in ancillary pharmacology panel (in words) ([1]; panel of 68 GPCRs, ion channels and transporters): no activity; Intrinsic clearance (in words) [3]: rapidly cleared in vitro
2 | Cc1csc(NC(=O)CSc2ccc(-c3ccccc3)nn2)n1 [compound 1] | – | > 100 fold | – | –
3 | Cc1csc(N(C)C(=O)CSc2ccc(-c3ccccc3)nn2)n1 [compound 2] | weak, partial inhibition; also recorded: weak partial inhibition | > 100 fold | – | CLint scaled [3]: 229 mL/min/kg; CLint scaled [5]: 294 mL/min/kg; block of KCC2 in spinal cord (in words) (KCC2 [6]): used successfully to block KCC2 in spinal cord
4 | Cc1csc(NC(=O)CSc2ccc(-c3ccccc3)cn2)n1 [compound 9] | – | – | weak | –
5 | Cc1csc(N(C)C(=O)CSc2ccc(-c3ccccc3)cn2)n1 [compound 10] | – | – | weak | –
